Patent US10774132B2, “Ultralong complementarity determining regions and uses thereof” (THE SCRIPPS RESEARCH INSTITUTE, priority 2012, dated 2020)

Columns and labels:
Mouse NFS-60 cells = test: Proliferation assay on mouse NFS-60 cells (AlamarBlue); format: cell-based; details: 72 hours
Procedure: Mouse NFS-60 cells were obtained from American Type Culture Collection (ATCC), VA, and cultured in RPMI-1640 medium supplemented with 10% fetal bovine serum (FBS), 0.05 mM 2-mercapoethanol and 62 ng/ml human macrophage colony stimulating factor (M-CSF). For proliferation assay, mouse NFS-60 cells were washed three times with RPMI-1640 medium and resuspended in RPMI-1640 medium with 10% FBS and 0.05 mM 2-mercapoethanol at a density of 1.5×10^5 cells/ml. In 96-well plates, 100 μl of cell suspension was added into each well, followed by the addition of varied concentrations of bGCSF, BLV1H12 antibody, and the immunoglobulin constructs described herein, Equal volume of PBS buffer was added into the control wells. The plates were incubated at 37° C. in a 5% CO2 incubator for 72 hours. Cells were then treated with AlamarBlue (Invitrogen) ( 1/10 volume of cell suspension) for 4 hours at 37° C. Fluorescence at 595 nm for each well was read to indicate the cell viability.

mice neutrophils = test: Neutrophil counts in mice, 10th day after injection; format: in vivo; details: blood stained and counted at the 10th day post-injection
Procedure: On the 10th day after injection of BLV1H12-bGCSF fusion antibodies into mice for PK study, blood samples were drawn from the mice and stained using the Diff Quick Staining Kit (Thermo Fisher Scientific, IL). Neutrophils and white blood cells were counted under microscope and the percentages of neutrophils were analyzed. FIGS. 12A-12B and Table 12 show proliferative activities of BLV1H12-bGCSF fusion antibodies on mice neutrophils that are blood stained and counted at the 10th day post-injection.

Human mPB CD34+ cells = test: Proliferative activity on human granulocyte progenitors (flow cytometry); format: cell-based; details: 7 days, flow cytometry
Procedure: Human mPB CD34^+ cells were purchased from AllCells. Cells were resuspended in HSC expansion medium (StemSpan SFEM, StemCell Technologies) supplemented with 1× antibiotics and the following recombinant human cytokines: thrombopoietin, IL6, Flt3 ligand, and stem cell factor (100 ng/mL, R & D Systems), then plated in 96-well plates (1000 cells per well), with varied concentrations of BLV1H12-bGCSF fusion antibodies. Cells were cultured for 7 days at 37° C. in a 5% CO2 incubator, then analyzed by flow cytometry to measure cell number and expression of CD45ra and CD41. Cells were stained in staining medium (HBSS supplemented with 2% FBS and 2 mM EDTA) at 4° C. for 1 h with PECy7 anti-CD45ra and eFluor 450 anti-CD41 (eBiosciences), then washed with staining medium and analyzed. Multicolor analysis for cell phenotyping was performed on a LSR II flow cytometer (Becton Dickinson). FIGS. 10A-10E and Tables 9-10 show the human granulocyte progenitor cell proliferative activities of the Ab-GCSF fusion antibodies.

[1] = Pharmacokinetics in mice (ELISA of blood samples); format: in vivo; details: 70 μg injected, BALB/c mice
Procedure: For PK study in mice, 70 μg of the immunoglobulin constructs described herein were injected into 3 BALB/c mice per group. Blood samples were drawn from time 0 to 14 days with extended intervals and analyzed by ELISA using anti-human IgG Fc antibody with horseradish peroxidase (HRP) labeled (KPL) and anti-6×His antibody (“6×His” disclosed as SEQ ID NO: 511) with HRP labeled (Clontech). Data were normalized by taking maximal concentration at the first time point (30 min).

GLP-1 receptor (GLP-1R) = target: T1, GLP-1 receptor (GLP-1R) (Homo sapiens, UniProt P43220); test: GLP-1R activation, cAMP responsive luciferase reporter in HEK293 cells; format: cell-based; details: HEK293 cells expressing GLP-1R, 24 h
T1 construct: expressed in transfected cells; host or cells: HEK293 (with cAMP responsive luciferase reporter gene)
T1 sequence (P43220 24-463, species assumed): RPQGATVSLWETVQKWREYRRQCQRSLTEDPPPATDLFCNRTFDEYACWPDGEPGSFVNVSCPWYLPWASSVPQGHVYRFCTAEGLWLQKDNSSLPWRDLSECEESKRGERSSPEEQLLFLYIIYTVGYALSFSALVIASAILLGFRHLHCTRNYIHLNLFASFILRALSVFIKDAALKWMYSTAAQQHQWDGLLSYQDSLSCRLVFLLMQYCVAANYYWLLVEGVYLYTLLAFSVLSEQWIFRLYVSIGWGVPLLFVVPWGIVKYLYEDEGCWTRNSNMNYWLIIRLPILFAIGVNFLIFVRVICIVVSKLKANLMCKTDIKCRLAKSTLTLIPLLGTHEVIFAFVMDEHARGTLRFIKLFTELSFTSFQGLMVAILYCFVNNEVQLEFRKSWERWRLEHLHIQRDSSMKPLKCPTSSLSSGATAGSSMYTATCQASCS
Procedure: HEK293 cells expressing surface GLP-1R and cAMP responsive luciferase reporter gene were seeded in 384 well plates at a density of 5000 cells per well. […] Subsequently, luciferase assay was performed using One-Glo luciferase reagent according manufacture's instruction (Promega).
HEK293 cells expressing surface GLP-1R and cAMP responsive luciferase reporter gene were seeded in 384 well plates at a density of 5000 cells per well. After 24 h incubation at 37° C. with 5% CO2, cells were treated with various concentrations of peptides and BLV1H12-GLP-1 clip fusion proteins and incubated for another 24 h. Subsequently, luciferase assay was performed using One-Glo luciferase reagent according manufacture's instruction (Promega).

Substance: Ab-bGCSF L1: bovine G-CSF replacing the knob domain of BLV1H12 CDR3H with GGGGS linkers on both ends (n=1), SEQ ID NO: 5
- F.I. (fluorescence at 595 nm, AlamarBlue, cell viability) (Mouse NFS-60 cells; 0.09808 ng/mL): 1412.387
- F.I. (fluorescence at 595 nm, AlamarBlue, cell viability) (Mouse NFS-60 cells; 0.29424 ng/mL): 1654.776
- F.I. (fluorescence at 595 nm, AlamarBlue, cell viability) (Mouse NFS-60 cells; 0.88272 ng/mL): 2082.718
- F.I. (fluorescence at 595 nm, AlamarBlue, cell viability) (Mouse NFS-60 cells; 2.64816 ng/mL): 2550.674
- F.I. (fluorescence at 595 nm, AlamarBlue, cell viability) (Mouse NFS-60 cells; 7.94449 ng/mL): 2997.807
- F.I. (fluorescence at 595 nm, AlamarBlue, cell viability) (Mouse NFS-60 cells; 23.83346 ng/mL): 3277.812
- F.I. (fluorescence at 595 nm, AlamarBlue, cell viability) (Mouse NFS-60 cells; 71.50039 ng/mL): 3308.383
- F.I. (fluorescence at 595 nm, AlamarBlue, cell viability) (Mouse NFS-60 cells; 214.50117 ng/mL): 3868.075
- Percentage of Neutrophil (mice neutrophils): 25.32
- Number of CD45RA-CD41- (Human mPB CD34+ cells; 0.30483 ng/mL): 4070
- Number of CD45RA-CD41- (Human mPB CD34+ cells; 0.91449 ng/mL): 3601
- Number of CD45RA-CD41- (Human mPB CD34+ cells; 2.74348 ng/mL): 4303
- Number of CD45RA-CD41- (Human mPB CD34+ cells; 8.23045 ng/mL): 6404
- Number of CD45RA-CD41- (Human mPB CD34+ cells; 24.69136 ng/mL): 9122
- Number of CD45RA-CD41- (Human mPB CD34+ cells; 74.07407 ng/mL): 11200
- Number of CD45RA-CD41- (Human mPB CD34+ cells; 222.22222 ng/mL): 11000
- Number of CD45RA-CD41- (Human mPB CD34+ cells; 666.66667 ng/mL): 11400
- Number of CD45RA-CD41- (Human mPB CD34+ cells; 2000 ng/mL): 11400
- Number of CD45RA-CD41- (Human mPB CD34+ cells; 6000 ng/mL): 13200
- Percentage (blood level normalized to first time point, 30 min) ([1]; day 0.021): 100.00%
- Percentage (blood level normalized to first time point, 30 min) ([1]; day 0.042): 102.12%
- Percentage (blood level normalized to first time point, 30 min) ([1]; day 0.083): 104.03%
- Percentage (blood level normalized to first time point, 30 min) ([1]; day 0.125): 101.71%
- Percentage (blood level normalized to first time point, 30 min) ([1]; day 0.250): 93.90%
- Percentage (blood level normalized to first time point, 30 min) ([1]; day 1.000): 59.26%
- Percentage (blood level normalized to first time point, 30 min) ([1]; day 2.000): 56.66%
- Percentage (blood level normalized to first time point, 30 min) ([1]; day 3.000): 39.09%
- Percentage (blood level normalized to first time point, 30 min) ([1]; day 8.000): 22.21%
- Percentage (blood level normalized to first time point, 30 min) ([1]; day 10.000): 21.15%
- Percentage (blood level normalized to first time point, 30 min) ([1]; day 14.000): 21.41%

Substance: Ab-bGCSF L0: bovine G-CSF replacing the knob domain of BLV1H12 CDR3H, no linker (n=0), SEQ ID NO: 4
- F.I. (fluorescence at 595 nm, AlamarBlue, cell viability) (Mouse NFS-60 cells; 0.09876 ng/mL): 1328
- F.I. (fluorescence at 595 nm, AlamarBlue, cell viability) (Mouse NFS-60 cells; 0.29627 ng/mL): 1436
- F.I. (fluorescence at 595 nm, AlamarBlue, cell viability) (Mouse NFS-60 cells; 0.88881 ng/mL): 1734.765
- F.I. (fluorescence at 595 nm, AlamarBlue, cell viability) (Mouse NFS-60 cells; 2.66642 ng/mL): 2189
- F.I. (fluorescence at 595 nm, AlamarBlue, cell viability) (Mouse NFS-60 cells; 7.99927 ng/mL): 2680
- F.I. (fluorescence at 595 nm, AlamarBlue, cell viability) (Mouse NFS-60 cells; 23.9978 ng/mL): 2899
- F.I. (fluorescence at 595 nm, AlamarBlue, cell viability) (Mouse NFS-60 cells; 71.9934 ng/mL): 2921
- F.I. (fluorescence at 595 nm, AlamarBlue, cell viability) (Mouse NFS-60 cells; 215.9802 ng/mL): 3416
- Percentage of Neutrophil (mice neutrophils): 25.05
- Number of CD45RA-CD41- (Human mPB CD34+ cells; 0.14225 ng/mL): 2601
- Number of CD45RA-CD41- (Human mPB CD34+ cells; 0.42676 ng/mL): 2253
- Number of CD45RA-CD41- (Human mPB CD34+ cells; 3.84088 ng/mL): 4399
- Number of CD45RA-CD41- (Human mPB CD34+ cells; 11.52263 ng/mL): 7262
- Number of CD45RA-CD41- (Human mPB CD34+ cells; 34.5679 ng/mL): 9902
- Number of CD45RA-CD41- (Human mPB CD34+ cells; 103.7037 ng/mL): 11500
- Number of CD45RA-CD41- (Human mPB CD34+ cells; 311.11111 ng/mL): 11500
- Number of CD45RA-CD41- (Human mPB CD34+ cells; 933.33333 ng/mL): 11900
- Number of CD45RA-CD41- (Human mPB CD34+ cells; 2800 ng/mL): 12100
- Percentage (blood level normalized to first time point, 30 min) ([1]; day 0.021): 100.00%
- Percentage (blood level normalized to first time point, 30 min) ([1]; day 0.042): 91.12%
- Percentage (blood level normalized to first time point, 30 min) ([1]; day 0.083): 91.24%
- Percentage (blood level normalized to first time point, 30 min) ([1]; day 0.125): 91.56%
- Percentage (blood level normalized to first time point, 30 min) ([1]; day 0.250): 61.22%
- Percentage (blood level normalized to first time point, 30 min) ([1]; day 1.000): 44.22%
- Percentage (blood level normalized to first time point, 30 min) ([1]; day 2.000): 36.36%
- Percentage (blood level normalized to first time point, 30 min) ([1]; day 3.000): 27.38%
- Percentage (blood level normalized to first time point, 30 min) ([1]; day 8.000): 11.53%
- Percentage (blood level normalized to first time point, 30 min) ([1]; day 10.000): 12.44%
- Percentage (blood level normalized to first time point, 30 min) ([1]; day 14.000): 14.35%

Substance: Ab-Ex4: Exendin-4 with Factor Xa site and GGGGS linkers grafted into CDR3H of BLV1H12
- RLU (cAMP responsive luciferase reporter) (GLP-1 receptor (GLP-1R); 1.26953 nM): 6120 RLU
- RLU (cAMP responsive luciferase reporter) (GLP-1 receptor (GLP-1R); 2.53906 nM): 6360 RLU
- RLU (cAMP responsive luciferase reporter) (GLP-1 receptor (GLP-1R); 5.07813 nM): 8500 RLU
- RLU (cAMP responsive luciferase reporter) (GLP-1 receptor (GLP-1R); 10.15625 nM): 10420 RLU
- RLU (cAMP responsive luciferase reporter) (GLP-1 receptor (GLP-1R); 20.3125 nM): 19340 RLU
- RLU (cAMP responsive luciferase reporter) (GLP-1 receptor (GLP-1R); 40.625 nM): 27960 RLU
- RLU (cAMP responsive luciferase reporter) (GLP-1 receptor (GLP-1R); 81.25 nM): 54800 RLU
- RLU (cAMP responsive luciferase reporter) (GLP-1 receptor (GLP-1R); 162.5 nM): 90660 RLU
- RLU (cAMP responsive luciferase reporter) (GLP-1 receptor (GLP-1R); 325 nM): 117900 RLU
- RLU (cAMP responsive luciferase reporter) (GLP-1 receptor (GLP-1R); 650 nM): 134760 RLU
- RLU (cAMP responsive luciferase reporter) (GLP-1 receptor (GLP-1R); 1300 nM): 159660 RLU
